Some test systems named below: DMS 114 small cell lung; OVCAR-5 ovarian; DMS 273 small cell lung; LXFL 529 NSCLC; A498 renal; SNB-75 CNS; NCI-H23 lung; DLD-1 colon; SNB-78 CNS; HOP-18 NSCLC; SK-MEL-2 melanoma; BT-549 breast.
Assay in all cases: growth of human tumour cells (NCI), 48 h

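All cell lines were grown in 96-well plates and treated with compound for 48 hours. Definition used: TGI = concentration required for complete inhibition of growth.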

For `O=[N+]([O-])c1ccc(Cl)c(C2SCc3nc4ccccc4n32)c1` (centres undefined), the TGI is more than 100 µM in the experiment on DMS 114 small cell lung; more than 100 µM in the experiment on OVCAR-5 ovarian; more than 100 µM with DMS 273 small cell lung; more than 100 µM in the experiment with LXFL 529 NSCLC; more than 100 µM with A498 renal; 89.9 µM with SNB-75 CNS. For the same molecule, the TGI in the experiment with NCI-H23 lung was more than 100 µM; with DLD-1 colon, more than 100 µM; in the experiment on SNB-78 CNS, more than 100 µM; in the experiment with HOP-18 NSCLC, 67.7 µM; in the experiment on SK-MEL-2 melanoma, more than 100 µM.
Take `Cc1cc(C)c(C(=O)OC(c2ccccc2)C(c2ccccc2)N2CCOCC2)c(C)c1` (centres undefined): the TGI in the experiment with DMS 114 small cell lung, in the experiment with DMS 273 small cell lung, in the experiment on LXFL 529 NSCLC, in the experiment on A498 renal, in the experiment with SNB-75 CNS and in the experiment with NCI-H23 lung was more than 100 µM in each case. Moreover, the TGI in the experiment on DLD-1 colon, with SNB-78 CNS, with HOP-18 NSCLC and in the experiment with SK-MEL-2 melanoma was more than 100 µM in each case.
As to `COc1ccc(C(=O)C=C2NCCN2)cc1`, the TGI with DMS 114 small cell lung, in the experiment on OVCAR-5 ovarian, with DMS 273 small cell lung, in the experiment with LXFL 529 NSCLC, with A498 renal and in the experiment on SNB-75 CNS was more than 100 µM throughout. Further, the TGI in the experiment with NCI-H23 lung, with DLD-1 colon, in the experiment with SNB-78 CNS, with HOP-18 NSCLC and in the experiment on SK-MEL-2 melanoma was more than 100 µM in each case.
For the molecule `O=c1[nH]c(=S)[nH]c(O)c1/C=C1\C=CC=N1`, the TGI is 23.3 µM in the experiment with DMS 114 small cell lung; 47 µM in the experiment on OVCAR-5 ovarian; 25.3 µM with DMS 273 small cell lung; 21.9 µM in the experiment with LXFL 529 NSCLC; 84.3 µM in the experiment on A498 renal; 42.5 µM with SNB-75 CNS. The TGI with NCI-H23 lung is 40 µM; with DLD-1 colon, 22 µM; in the experiment on SNB-78 CNS, 67.4 µM; with HOP-18 NSCLC it was 85.7 µM; with SK-MEL-2 melanoma it was 51.4 µM.
Turning to `COC1=C(OC)CCC(/C(C#N)=C/c2ccc(OC)c(OC)c2)=C1`, the TGI was more than 100 µM in the experiment with DMS 114 small cell lung; more than 100 µM in the experiment with OVCAR-5 ovarian; more than 100 µM in the experiment on DMS 273 small cell lung; more than 100 µM in the experiment on LXFL 529 NSCLC; more than 100 µM with A498 renal; 43 µM in the experiment on SNB-75 CNS. Also, the TGI in the experiment with NCI-H23 lung, in the experiment with DLD-1 colon, in the experiment on SNB-78 CNS, in the experiment on HOP-18 NSCLC and in the experiment with SK-MEL-2 melanoma was more than 100 µM each time.
Turning to `COc1cc2c(cc1C)n(O)c(C)c(C(=O)C/C(=N/NC(=O)C[N+](C)(C)C)C(=O)Nc1cccc(Cl)c1C)[n+]2=O`, the TGI in the experiment with DMS 114 small cell lung, in the experiment on OVCAR-5 ovarian, in the experiment with DMS 273 small cell lung, with LXFL 529 NSCLC, in the experiment on A498 renal and in the experiment on SNB-75 CNS was more than 100 µM each time. Besides, the TGI in the experiment with NCI-H23 lung, in the experiment on DLD-1 colon, with SNB-78 CNS, in the experiment on HOP-18 NSCLC and in the experiment on SK-MEL-2 melanoma was more than 100 µM each time.
For `O=c1cccccc1NCCCCNc1cccccc1=O`, the TGI with DMS 114 small cell lung, in the experiment with OVCAR-5 ovarian, with DMS 273 small cell lung, in the experiment with LXFL 529 NSCLC, with A498 renal and in the experiment on SNB-75 CNS was more than 100 µM throughout. Also, the TGI with NCI-H23 lung, with DLD-1 colon, with SNB-78 CNS, in the experiment on HOP-18 NSCLC and in the experiment on SK-MEL-2 melanoma was more than 100 µM each time.
Turning to `CC1(C)OCN(c2ccc(Cl)cc2)Cn2c1nc1ccccc12`, the TGI in the experiment with DMS 114 small cell lung was 53.2 µM; in the experiment with OVCAR-5 ovarian, more than 100 µM; with DMS 273 small cell lung it was more than 100 µM; in the experiment on LXFL 529 NSCLC it was more than 100 µM; with A498 renal, more than 100 µM; in the experiment on SNB-75 CNS, more than 100 µM. Also, the TGI in the experiment on NCI-H23 lung, in the experiment with DLD-1 colon, in the experiment on SNB-78 CNS, in the experiment on HOP-18 NSCLC, with SK-MEL-2 melanoma and in the experiment with BT-549 breast was more than 100 µM throughout.
As for `O=c1c([Se]c2coc3ccccc3c2=O)coc2ccccc12`, the TGI in the experiment on DMS 114 small cell lung worked out at 31.5 µM; in the experiment on OVCAR-5 ovarian, 30.3 µM; in the experiment on DMS 273 small cell lung, 24 µM; in the experiment on LXFL 529 NSCLC it was 28.8 µM; with A498 renal, 33.6 µM; in the experiment on SNB-75 CNS, 29.1 µM. Moreover, the TGI with NCI-H23 lung was found to be 29.6 µM; in the experiment on DLD-1 colon, 34 µM; in the experiment on SNB-78 CNS it was 34.7 µM; in the experiment on HOP-18 NSCLC it was 29.3 µM; in the experiment with SK-MEL-2 melanoma it was 32.4 µM.

The record behind these values is PubChem BioAssay (NCI).
